Assay results taken from patent publication US20260241012A1, “1,8-NAPHTHYRIDIN-2-ONE HETEROBIFUNCTIONAL BCL6 DEGRADERS” (Treeline Biosciences, Inc., priority 2022, published 2026).

Target: T1, N-terminal HiBiT tagged BCL6 (Homo sapiens, UniProt P41182)
T1 construct: expressed in transfected cells; host or cells: HT1080 (ATCC CCL-121), stably transduced with lentivirus pLV-UBC-N-HiBiT-BCL6-PGK-puro
Test: HiBiT based degradation assay
Format: cell-based
Conditions: HT1080 cells expressing N-terminal HiBiT tagged BCL6, 5 hours of incubation; for Ymin (5 hr): BCL6 degradation normalized with DMSO control; for DC50: four-parameter logistic model, read-out: EC50 (5 hr)
Procedure, shortened: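 Degradation measured by luminescence from the Nano-Glo HiBiT lytic reagent (15 min, room temperature), normalized to DMSO controls and fitted to a four-parameter curve.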

Ymin (5 hr)	DC50	Compound
++ (50% ≤ Ymin < 70%)	< 10 nM	CNC(=O)COc1cc2cc(Nc3nc(N4CCN(C[C@H]5CCN(c6ccc7c(C8CCC(=O)NC8=O)nn(C)c7c6)C5)[C@H](C)C4)ncc3Cl)cnc2n(C(C)C)c1=O (stereo partly drawn) [Compound 216c, 2-[[6-[[5-chloro-2-[(3R)-4-[[(3R)-1-[3-(2,6-dioxo-3-piperidyl)-1-methyl-indazol-6-yl]pyrrolidin-3-yl]methyl]-3-methyl-piperazin-1-yl]pyrimidin-4-yl]amino]-1-isopropyl-2-oxo-1,8-naphthyridin-3-yl]oxy]-N-methyl-acetamide]
+++ (30% ≤ Ymin < 50%)	< 10 nM	CNC(=O)COc1cc2cc(Nc3nc(N4CCN(C[C@@H]5CCN(c6ccc7c(C8CCC(=O)NC8=O)nn(C)c7c6)C5)[C@H](C)C4)ncc3Cl)cnc2n(C(C)C)c1=O (stereo partly drawn) [Compound 216d, 2-[[6-[[5-chloro-2-[(3R)-4-[[(3S)-1-[3-(2,6-dioxo-3-piperidyl)-1-methyl-indazol-6-yl]pyrrolidin-3-yl]methyl]-3-methyl-piperazin-1-yl]pyrimidin-4-yl]amino]-1-isopropyl-2-oxo-1,8-naphthyridin-3-yl]oxy]-N-methyl-acetamide]
++++ (Ymin < 30%)	10 to 100 nM	CNC(=O)COc1cc2cc(Nc3cc(N4CCC(CN5CCN(c6cccc7c(C8CCC(=O)NC8=O)nn(C)c67)[C@H](C)C5)CC4)ncc3Cl)cnc2n(C(C)C)c1=O (stereo partly drawn) [Compound 217a, 2-[[6-[[5-chloro-2-[4-[[(3R)-4-[3-(2,6-dioxo-3-piperidyl)-1-methyl-indazol-7-yl]-3-methyl-piperazin-1-yl]methyl]-1-piperidyl]-4-pyridyl]amino]-1-isopropyl-2-oxo-1,8-naphthyridin-3-yl]oxy]-N-methyl-acetamide]
+ (Ymin ≥ 70%)	≥ 1000 nM	CNC(=O)COc1cc2cc(Nc3cc(N4CCC(CN5CCN(c6cccc7c(C8CCC(=O)NC8=O)nn(C)c67)[C@@H](C)C5)CC4)ncc3Cl)cnc2n(C(C)C)c1=O (stereo partly drawn) [Compound 217b, 2-[[6-[[5-chloro-2-[4-[[(3S)-4-[3-(2,6-dioxo-3-piperidyl)-1-methyl-indazol-7-yl]-3-methyl-piperazin-1-yl]methyl]-1-piperidyl]-4-pyridyl]amino]-1-isopropyl-2-oxo-1,8-naphthyridin-3-yl]oxy]-N-methyl-acetamide]
+++ (30% ≤ Ymin < 50%)	< 10 nM	CNC(=O)COc1cc2cc(Nc3nc(N4CC[C@@H](CN5CCN(c6ccc7c(C8CCC(=O)NC8=O)nn(C)c7c6)CC5)C4)ncc3Cl)cnc2n(C(C)C)c1=O (stereo partly drawn) [Compound 218a, 2-[[6-[[5-chloro-2-[(3S)-3-[[4-[3-(2,6-dioxo-3-piperidyl)-1-methyl-indazol-6-yl]piperazin-1-yl]methyl]pyrrolidin-1-yl]pyrimidin-4-yl]amino]-1-isopropyl-2-oxo-1,8-naphthyridin-3-yl]oxy]-N-methyl-acetamide]
+++ (30% ≤ Ymin < 50%)	< 10 nM	CNC(=O)COc1cc2cc(Nc3nc(N4CC[C@H](CN5CCN(c6ccc7c(C8CCC(=O)NC8=O)nn(C)c7c6)CC5)C4)ncc3Cl)cnc2n(C(C)C)c1=O (stereo partly drawn) [Compound 218b, 2-[[6-[[5-chloro-2-[(3R)-3-[[4-[3-(2,6-dioxo-3-piperidyl)-1-methyl-indazol-6-yl]piperazin-1-yl]methyl]pyrrolidin-1-yl]pyrimidin-4-yl]amino]-1-isopropyl-2-oxo-1,8-naphthyridin-3-yl]oxy]-N-methyl-acetamide]
+++ (30% ≤ Ymin < 50%)	< 10 nM	CNC(=O)COc1cc2cc(Nc3nc(N4CCN(C(=O)N5CCN(c6ccc7c(C8CCC(=O)NC8=O)nn(C)c7c6)CC5)CC4)ncc3Cl)cnc2n(C(C)C)c1=O (stereo not shown) [Compound 219, 2-[[6-[[5-chloro-2-[4-[4-[3-(2,6-dioxo-3-piperidyl)-1-methyl-indazol-6-yl]piperazine-1-carbonyl]piperazin-1-yl]pyrimidin-4-yl]amino]-1-isopropyl-2-oxo-1,8-naphthyridin-3-yl]oxy]-N-methyl-acetamide]
+++ (30% ≤ Ymin < 50%)	< 10 nM	CNC(=O)COc1cc2cc(Nc3nc(N4CCN(C(=O)N5CCC(c6ccc7c(C8CCC(=O)NC8=O)nn(C)c7c6)CC5)CC4)ncc3Cl)cnc2n(C(C)C)c1=O (stereo not shown) [Compound 220, 2-[[6-[[5-chloro-2-[4-[4-[3-(2,6-dioxo-3-piperidyl)-1-methyl-indazol-6-yl]piperidine-1-carbonyl]piperazin-1-yl]pyrimidin-4-yl]amino]-1-isopropyl-2-oxo-1,8-naphthyridin-3-yl]oxy]-N-methyl-acetamide]
++ (50% ≤ Ymin < 70%)	10 to 100 nM	CNC(=O)COc1cc2cc(Nc3nc(N4CC5(CCC(Nc6c(F)ccc7c(C8CCC(=O)NC8=O)nn(C)c67)CC5)C4)ncc3Cl)cnc2n(C(C)C)c1=O (stereo not shown) [Compound 222, 2-[[6-[[5-chloro-2-[7-[[3-(2,6-dioxo-3-piperidyl)-6-fluoro-1-methyl-indazol-7-yl]amino]-2-azaspiro[3.5]nonan-2-yl]pyrimidin-4-yl]amino]-1-isopropyl-2-oxo-1,8-naphthyridin-3-yl]oxy]-N-methyl-acetamide]
++++ (Ymin < 30%)	< 10 nM	CNC(=O)COc1cc2cc(Nc3nc(N4CCN(C(=O)N5CCN(c6cccc7c(C8CCC(=O)NC8=O)nn(C)c67)CC5)CC4)ncc3Cl)cnc2n(C(C)C)c1=O (stereo not shown) [Compound 223, 2-[[6-[[5-chloro-2-[4-[4-[3-(2,6-dioxo-3-piperidyl)-1-methyl-indazol-7-yl]piperazine-1-carbonyl]piperazin-1-yl]pyrimidin-4-yl]amino]-1-isopropyl-2-oxo-1,8-naphthyridin-3-yl]oxy]-N-methyl-acetamide]
+++ (30% ≤ Ymin < 50%)	< 10 nM	CNC(=O)COc1cc2cc(Nc3nc(N4CCN(C(=O)N5CCC(c6cccc7c(C8CCC(=O)NC8=O)nn(C)c67)CC5)CC4)ncc3Cl)cnc2n(C(C)C)c1=O (stereo not shown) [Compound 224, 2-[[6-[[5-chloro-2-[4-[4-[3-(2,6-dioxo-3-piperidyl)-1-methyl-indazol-7-yl]piperidine-1-carbonyl]piperazin-1-yl]pyrimidin-4-yl]amino]-1-isopropyl-2-oxo-1,8-naphthyridin-3-yl]oxy]-N-methyl-acetamide]
++++ (Ymin < 30%)	10 to 100 nM	CNC(=O)COc1cc2cc(Nc3nc(N4CCC(OC5CCN(c6cccc7c(C8CCC(=O)NC8=O)nn(C)c67)CC5)CC4)ncc3Cl)cnc2n(C(C)C)c1=O (stereo not shown) [Compound 225, 2-[[6-[[5-chloro-2-[4-[[1-[3-(2,6-dioxo-3-piperidyl)-1-methyl-indazol-7-yl]-4-piperidyl]oxy]-1-piperidyl]pyrimidin-4-yl]amino]-1-isopropyl-2-oxo-1,8-naphthyridin-3-yl]oxy]-N-methyl-acetamide]
++ (50% ≤ Ymin < 70%)	< 10 nM	CNC(=O)COc1cc2cc(Nc3nc(N4CCN([C@H]5C[C@H](OC6CCN(c7ccc8c(C9CCC(=O)NC9=O)nn(C)c8c7)CC6)C5)CC4)ncc3Cl)cnc2n(C(C)C)c1=O (stereo partly shown) [Compound 227a, 2-((6-((5-chloro-2-(4-((1r,3r)-3-((1-(3-(2,6-dioxopiperidin-3-yl)-1-methyl-1H-indazol-6-yl)piperidin-4-yl)oxy)cyclobutyl)piperazin-1-yl)pyrimidin-4-yl)amino)-1-isopropyl-2-oxo-1,2-dihydro-1,8-naphthyridin-3-yl)oxy)-N-methylacetamide]
+++ (30% ≤ Ymin < 50%)	< 10 nM	CNC(=O)COc1cc2cc(Nc3nc(N4CCN(C[C@@H]5CCN(c6ccc7c(C8CCC(=O)NC8=O)nn(C)c7c6)C5)CC4)ncc3Cl)cnc2n(C(C)C)c1=O (stereo partly drawn) [Compound 228a, 2-[[6-[[5-chloro-2-[4-[[(3S)-1-[3-(2,6-dioxo-3-piperidyl)-1-methyl-indazol-6-yl]pyrrolidin-3-yl]methyl]piperazin-1-yl]pyrimidin-4-yl]amino]-1-isopropyl-2-oxo-1,8-naphthyridin-3-yl]oxy]-N-methyl-acetamide]
++ (50% ≤ Ymin < 70%)	10 to 100 nM	CNC(=O)COc1cc2cc(Nc3nc(N4CCN(C[C@H]5CCN(c6ccc7c(C8CCC(=O)NC8=O)nn(C)c7c6)C5)CC4)ncc3Cl)cnc2n(C(C)C)c1=O (stereo partly drawn) [Compound 228b, 2-((6-((5-chloro-2-(4-(((3R)-1-(3-(2,6-dioxopiperidin-3-yl)-1-methyl-1H-indazol-6-yl)pyrrolidin-3-yl)methyl)piperazin-1-yl)pyrimidin-4-yl)amino)-1-isopropyl-2-oxo-1,2-dihydro-1,8-naphthyridin-3-yl)oxy)-N-methylacetamide]
++++ (Ymin < 30%)	< 10 nM	CNC(=O)COc1cc2cc(Nc3nc(N4CCC5(CC4)CC(N4CCN(c6ccc7c(C8CCC(=O)NC8=O)nn(C)c7c6)CC4)C5)ncc3Cl)cnc2n(C(C)C)c1=O (stereo not shown) [Compound 229, 2-[[6-[[5-chloro-2-[2-[4-[3-(2,6-dioxo-3-piperidyl)-1-methyl-indazol-6-yl]piperazin-1-yl]-7-azaspiro[3.5]nonan-7-yl]pyrimidin-4-yl]amino]-1-isopropyl-2-oxo-1,8-naphthyridin-3-yl]oxy]-N-methyl-acetamide]

Compound	Ymin (5 hr)	DC50
CNC(=O)COc1cc2cc(Nc3nc(N4CCC(O[C@H]5C[C@H](N6CCN(c7ccc8c(C9CCC(=O)NC9=O)nn(C)c8c7)CC6)C5)CC4)ncc3Cl)cnc2n(C(C)C)c1=O (stereo partly shown) [Compound 226a, 2-((6-((5-chloro-2-(4-((1r,3r)-3-(4-(3-(2,6-dioxopiperidin-3-yl)-1-methyl-1H-indazol-6-yl)piperazin-1-yl)cyclobutoxy)piperidin-1-yl)pyrimidin-4-yl)amino)-1-isopropyl-2-oxo-1,2-dihydro-1,8-naphthyridin-3-yl)oxy)-N-methylacetamide]	+++ (30% ≤ Ymin < 50%)	< 10 nM
